Patent publication US20080058211A1, “Method and Composition for the Modulation of Toxin Resistance in Plant Cells” (BOARD OF REGENTS, THE UNIVERSITY OF TEXAS SYSTEM, priority 2006, published 2008)

Legend:
[1] = system: root hairs of Arabidopsis thaliana; settings: cited from earlier work; for induction of membrane depolarization: applied nucleotide or phosphate
[2] = system: [Ca^2+]cyt in excised roots; settings: cited from earlier work; for effect on [Ca2+]cyt: 10 mM CaCl2; for suppression of the response of roots to eATP: antagonist or channel blocker with eATP
Arabidopsis pollen = assay: in vitro pollen germination (Arabidopsis); type: cell-based, Arabidopsis thaliana
Procedure: Effects of Extracellular ATPγS and AMPαS on Pollen Germination. Arabidopsis pollen was germinated in pollen germination media (PGM) containing from about zero to about 400 μM ATPγS or AMPαS. […] The method of collection included vortexing flowers in PGM creating a homogenous suspension of pollen from tens to hundreds of flowers. This method caused the release of a small amount of ATP, 2-5 μM into the PGM (data not shown).
The nitric oxide signaling pathway mediates the inhibition of Arabidopsis pollen germination by ATPγS. To examine the downstream effectors involved in the inhibition of Arabidopsis pollen germination by ATPγS, different agonists and antagonists of the known nitric oxide signaling pathway were examined. […] Some of the nitric oxide signaling pathway agonists are water soluble while others are DMSO soluble.
Strains and Growth Conditions. For the experiments related to the nitric oxide-ATP signaling relationship, all Arabidopsis thaliana plants were ecotype Wassilewskija (WS), and Medicago truncatula plants were strain A17. All of the plants were grown in Metro-Mix 200 soil at 24° C. with constant light. In vitro Pollen Germination. Arabidopsis flowers in stage 12-14 (Smyth et al., 1990) or Medicago truncatula flowers in stage F3 (Firnhaber et al., 2005) were collected and vortexed for 1 min in pollen germination media (PGM) (0.01% boric acid, 1 mM MgSO4, 1 mM CaCl2, 1 mM Ca(NO3)2, 5 mM HEPES, 18% Sucrose pH 7.0). The supernatant containing the pollen was collected by pipet, and up to three rounds of vortexing of the same pollen could be pooled together. The pollen suspended in PGM was then added in 10-12 μL drops to 400 μL PGM+1% agar that had been spread as a thin film across a microscope slide. The slides and pollen were then placed into humidity chambers, petri dishes with water saturated kimwipes, and allowed to germinate at 26° C. overnight. Pictures of the germinated pollen were taken with a digital camera attached to a brightfield microscope at 40×. The digital images were scored for the percent of pollen germinated using the AlphaEase software from Alpha Innotech. Pollen with tubes that were shorter than the diameter of the pollen grain were not counted as germinated or non-germinated. The chemicals: ATPγS, AMPαS, N2, 2-O-dibutyrylguanosine 3′:5′-cyclic monophospohate (Dib cGMP), Sildenafil citrate (Viagra™, Pfizer), and 2-(N,N-Diethylamino)-diazenolate 2-oxide (NONOate) were added to the pollen/PGM suspension prior to adding the drops to the PGM+1% agar. The chemicals 1H-[1,2,4]Oxadiazolo[4,3,-a]quinoxalin-1-one (ODQ), N-[4-[1-(3-Aminopropyl)-2-hydroxy-2-nitrosohydrazino]butyl]-1,3-propanediamine (SNAP), and 3-isobutyl-1-methylxanthine (IBMX) were diluted in DMSO and added to the pollen/PGM suspension to a final concentration of DMSO of 0.1%.
For successful pollen germination it was critical for the plants to be healthy and growing in slightly dry soil. To achieve this, the plants were briefly watered 1-2 days before the experiment. As Johnson-Brousseau and McCormick note in their paper (Johnson-Brousseau and McCormick 2004), a solid base is necessary for best in vitro germination of Arabidopsis pollen. The pollen would not germinate in liquid PGM if not overlaid on a solid PGM+1% agar base, and the vortexing and deposition of the pollen/PGM suspension needed to take place in less than 30 minutes or germination rates dropped considerably.

Arabidopsis pollen tubes = assay: pollen tube elongation; type: cell-based, Arabidopsis thaliana
Procedure: Arabidopsis pollen tube elongation is inhibited by ATPγS. As vesicles fuse to deliver membranes to the tip of elongating pollen tubes, ATP is likely to be released. So ATPγS and AMPαS were investigated for their ability to affect pollen tube elongation. After pollen tubes had begun to grow, from about 0 to about 250 μM ATPγS or AMPαS were added and the subsequent growth rate was determined.
Blocking the nitric oxide signaling pathway reverses the inhibition of Arabidopsis elongation by ATPγS. The inhibition of Arabidopsis pollen tube elongation was also mediated via the NO signaling pathway. Pollen tube growth rates were measured in 0.5% DMSO with and without 100 μM ATPγS.
Measurements of pollen tube elongation. Pollen was germinated as described above except 10 μL drops of pollen/PGM suspension were added to 60 μL of PGM+1% agar that had been deposited into a concavity slide. The pollen was allowed to germinate for 1-2 h, so that pollen tubes were clearly visible. Then 90 μL of PGM or PGM containing ATPγS, AMPαS, DMSO or ODQ was added and a photo was taken using a brightfield microscope at 40×. The coordinates of each photo were noted, so that the exact pollen tubes could be photographed 50-60 minutes later. Using Image J, the pollen tube lengths for individual pollen tubes were measured and a growth rate of μm/min was determined.

[3] = system: nitric oxide levels in elongating Arabidopsis pollen tubes; assay: nitric oxide in elongating pollen tubes, DAF-2D fluorescence; type: cell-based, Arabidopsis thaliana; settings: 125 μM
Procedure: Increased extracellular ATPγS increases nitric oxide production in elongating pollen tubes. In addition to using agonists and antagonists to indirectly study the relationship of eATPγS and nitric oxide, direct measurements of increases in nitric oxide after application of ATPγS and AMPαS were examined. Pollen grains have a high level of auto-fluorescence and the nitric oxide levels in elongating Arabidopsis pollen tubes were determined using DAF-2D, a fluorescent marker for the presence of nitric oxide that was dissolved in DMSO. Elongating pollen tubes were treated with DAF-2D alone or with ATPγS or AMPαS.
Measurements of NO in growing pollen tubes treated with ATPγS or AMPαS. Pollen was germinated as described for the pollen elongation measurements. After 1-2 hours when pollen tubes were clearly visible, 90 μL of PGM containing 5 μM 4,5-diaminofluorescein diacetate (DAF-2D, Molecular Probes) with or without ATPγS or AMPαS was added. […] Using Image J, the average fluorescence for the pollen tubes on each slide and each time point were determined. Since background fluorescence for each slide varied, three areas where no pollen tubes were present were averaged and subtracted from the pollen tube averages for each slide. Pollen tubes with and without nucleotides were compared to each other at similar time points to determine if there was a difference in fluorescence.

Arabidopsis leaves = settings: cited from earlier work
Δ[Ca^2+]cyt = settings: co-application with OGA; cited from earlier work
roots = settings: in vivo; cited from earlier work
[Ca^2+]cyt = dextran-conjugated calcium green as reporter; cited from earlier work
[4] = system: ATMEKK1, ATMPK3, ATPK19, ERF2, ERF3, ERF4 and ACS6 genes; settings: cited from earlier work
[5] = DMSO-soluble agonist plus 50 μM ATPγS, 0.1% DMSO
[6] = water-soluble agonist plus 50 μM ATPγS

Molecule: Nc1ccn([C@@H]2O[C@H](COP(=O)(O)OP(=O)(O)OP(=O)(O)O)[C@@H](O)[C@H]2O)c(=O)n1 [CTP]
- induction of membrane depolarization [1]: did not

Molecule: phosphate
- induction of membrane depolarization [1]: no effect
- effect on [Ca2+]cyt ([2]; excised roots): Neither AMP or phosphate induced any significant change

Molecule: Nc1ncnc2c1ncn2[C@@H]1O[C@H](COP(O)(O)=S)[C@@H](O)[C@H]1O [AMPαS]
- agonist of pollen responses (Arabidopsis pollen): is not
- percent of germinated pollen (Arabidopsis pollen; PGM with about zero to about 400 μM): did not significantly change
- effect on pollen tube elongation rates (Arabidopsis pollen tubes; up to about 250 μM): no significant effect
- DAF-2D fluorescence [3]: did not significantly change

Molecule: NCCCNCCCCN(CCCN)N(O)N=O [SNAP, N-[4-[1-(3-Aminopropyl)-2-hydroxy-2-nitrosohydrazino]butyl]-1,3-propanediamine]
- effect of added NO pathway agonist on pollen germination with ATPγS (Arabidopsis pollen; [5]): cause 50 μM ATPγS to inhibit pollen germination

Molecule: O=c1ccn([C@@H]2O[C@H](COP(=O)(O)OP(=O)(O)OP(=O)(O)O)[C@@H](O)[C@H]2O)c(=O)[nH]1 [UTP]
- concentrations at which ineffective on [Ca2+]cyt ([2]; excised roots): below 100 μM

Molecule: Nc1nc2c(ncn2[C@@H]2O[C@H](COP(=O)(O)OP(=O)(O)OP(=O)(O)O)[C@@H](O)[C@H]2O)c(=O)[nH]1 [GTP]
- induction of membrane depolarization [1]: induced large depolarizations

Molecule: CCN(CC)[N+]([O-])=NO [NONOate, 2-(N,N-Diethylamino)-diazenolate 2-oxide]
- effect of added NO pathway agonist on pollen germination with ATPγS (Arabidopsis pollen; [6]): caused 50 μM ATPγS to become inhibitory

Molecule: Cc1nc(N=Nc2ccc(S(=O)(=O)O)cc2S(=O)(=O)O)c(COP(=O)(O)O)c(C=O)c1O [PPADS, pyridoxalphosphate-6-azophenyl-2′,4′-disulfonic acid]
- suppression of the response of roots to eATP [2]: completely suppressed
- blocking of ATP-induced superoxide production (Arabidopsis leaves; inhibitor treatment): block the response

Molecule: Nc1ncnc2c1ncn2[C@@H]1O[C@H](COP(=O)(O)OP(O)(O)=S)[C@@H](O)[C@H]1O [ADPβS]
- agonist of pollen responses (Arabidopsis pollen): active agonist
- effect on Δ[Ca2+]cyt together with OGA (Δ[Ca^2+]cyt): similarly increased
- concentration that could inhibit the straight growth of roots (roots): 0.3 mM

Molecule: Nc1ncnc2c1ncn2[C@@H]1O[C@H](COP(O)(O)=S)[C@@H](O)[C@H]1O [AMPS]
- effect on Δ[Ca2+]cyt together with OGA (Δ[Ca^2+]cyt): significant inhibitory effect

Molecule: CCCC(=O)Nc1nc2c(ncn2C2OC3COP(=O)([O-])OC3C2OC(=O)CCC)c(=O)[nH]1.[Na+] (stereo not drawn) [DibcGMP, N2,2-O-dibutyrylguanosine 3′:5′-cyclic monophospohate]
- effect of added NO pathway agonist on pollen germination with ATPγS (Arabidopsis pollen; [6]): caused 50 μM ATPγS to become inhibitory

Molecule: Cc1cn([C@H]2C[C@H](O)[C@@H](COP(=O)(O)OP(=O)(O)OP(=O)(O)O)O2)c(=O)[nH]c1=O [TTP]
- induction of membrane depolarization [1]: did not

Molecule: Nc1ncnc2c1ncn2[C@@H]1O[C@H](COP(=O)(O)OP(=O)(O)O)[C@@H](O)[C@H]1O [ADP]
- induction of membrane depolarization [1]: induced large depolarizations
- EC50 ([1]; dose-response studies, read-out: half-maximal depolarization): ~10 µM
- change in [Ca2+]cyt ([Ca^2+]cyt): no change
- abundance of mRNAs (MAP kinases, ERF2, ERF3, ERF4, ACS6) ([4]; application of 500 μM): induced an increased abundance
- concentration that could inhibit the straight growth of roots (roots): 3 mM

Molecule: O=c1onc2cnc3ccccc3n12 [ODQ, 1H-[1,2,4]Oxadiazolo[4,3,-a]quinoxalin-1-one]
- reversal of inhibition of pollen germination (Arabidopsis pollen; 100 μM ODQ with 250 μM ATPγS): reverse the inhibition
- effect on pollen tube elongation alone (Arabidopsis pollen tubes; 100 μM ODQ alone, 0.5% DMSO): no effect
- reversal of inhibition of pollen tube elongation (Arabidopsis pollen tubes; 100 μM ODQ with 100 μM ATPγS, 0.5% DMSO): reversed the inhibition

Molecule: Nc1ncnc2c1ncn2[C@@H]1O[C@H](COP(=O)(O)O)[C@@H](O)[C@H]1O [AMP]
- induction of membrane depolarization [1]: did not
- effect on [Ca2+]cyt ([2]; excised roots): Neither AMP or phosphate induced any significant change
- effect on superoxide production (Arabidopsis leaves; equivalent concentrations delivered into the leaves): no significant effect

Molecule: [Gd] [gadolinium]
- suppression of the response of roots to eATP [2]: completely suppressed
- blocking of nucleotide-induced gene expression changes ([4]; cells pre-treated): partially blocked

Molecule: CC(C)Cn1c(=O)n(C)c(=O)c2[nH]cnc21 [IBMX, 3-isobutyl-1-methylxanthine]
- effect of added NO pathway agonist on pollen germination with ATPγS (Arabidopsis pollen; [5]): cause 50 μM ATPγS to inhibit pollen germination
